Test results reported in ChEMBL document CHEMBL1158471, “Flaviviral protease inhibitors identified by fragment-based library docking into a structure generated by molecular dynamics” (J Med Chem, 2009).
Each block holds one compound with its values, some of them ahead of it. Where a SMILES comes first, the peptide text is derived from it. [ ]: non-standard residue; d: D form. The star is where a group is joined. Nle = CCCC[C@H](N)C(=O)O; Bz = O=C(c1ccccc1)*

Tests used:
[1] = target: T1, Genome polyprotein (West Nile virus, UniProt P06935); assay: Inhibition of WNV NS2B-NS3 protease
[2] = target: T1, Genome polyprotein; assay: Binding affinity to WNV NS2B-NS3 protease measured as change of 1H chemical shift of Thr52 and Glu101 by NMR spectroscopy
[3] = target: T1, Genome polyprotein; assay: Inhibition of WNV NS2B-NS3 protease by enzymatic assay
[4] = target: T1, Genome polyprotein; assay: Inhibition of WNV NS2B-NS3 protease by tryptophan fluorescence assay
[5] = target: T1, Genome polyprotein; assay: Binding affinity to WNV NS2B(K96A)-NS3 protease measured as change of 15N chemical shift of Ser137 by NMR spectroscopy
[6] = target: T1, Genome polyprotein; assay: Binding affinity to WNV NS2B(K96A)-NS3 protease measured as change of 15N chemical shift of Ala36 by NMR spectroscopy
[7] = target: T1, Genome polyprotein; assay: Binding affinity to WNV NS2B(K96A)-NS3 protease measured as change of 1H chemical shift of Glu101 by NMR spectroscopy
[8] = target: T1, Genome polyprotein; assay: Binding affinity to WNV NS2B(K96A)-NS3 protease measured as change of 15N chemical shift of Val100 by NMR spectroscopy

SMILES: Cc1ccc(C(NN=C(N)N)[PH](=O)O)cc1 (stereo not given)
Ki [1]: 13 µM

SMILES: NC(N)=N/N=C\c1ccc(/C=N\N=C(N)N)cc1
Ki [1]: 35 µM

Kd [2]: 40 µM
SMILES: Cc1cc(CSC(=N)N)c(C)cc1CSC(=N)N

SMILES: CC1CNC(c2ccc(Nc3nnc(Nc4ccc(C5=NC(C)CN5)cc4)c4ccccc34)cc2)=N1 (stereo not given)
IC50 [1]: 24.5 µM

SMILES: N=C(N)Nc1ccc(C(=O)Oc2ccc([N+](=O)[O-])cc2)cc1
IC50 [3]: 34.2 µM
Kd [4]: 16 µM

SMILES: c1ccc2c(Nc3ccc4c(c3)CNCC4)nnc(Nc3ccc(C4=NCCN4)cc3)c2c1
IC50 [1]: 5.2 µM

SMILES: NCc1ccc(Nc2nnc(Nc3ccc(C4=NCCN4)cc3)c3ccccc23)cc1
IC50 [1]: 10.6 µM

SMILES: CCCC[C@H](NC(=O)c1ccccc1)C(=O)N[C@@H](CCCCN)C(=O)N[C@@H](CCCNC(=N)N)C(=O)N[C@H](C=O)CCCNC(=N)N (Bz-[Nle]KRR-aldehyde)
IC50 [1]: 4.1 µM

SMILES: N=C(N)c1cccc(NC(=O)Nc2cccc(C(=N)N)c2)c1 [AMICARBALIDE]
Kd [5]: 90 µM
Kd [6]: 90 µM
IC50 [3]: 2.8 µM
Kd [7]: 70 µM
Kd [8]: 90 µM
Kd [4]: 15 µM
